Test results: ChEMBL document CHEMBL4622913, “Synthesis and biological evaluation of arylphosphonium-benzoxaborole conjugates as novel anticancer agents” (Bioorg Med Chem Lett, 2020)
pIC50: −log10 of the molar value. Activity calls are given as the source filed them. No cut-off for these calls is given here.

How the values were obtained:
Assay type in all cases: functional, cell-based
[1] = test system: MCF7; experiment: Antiproliferative activity against human MCF7 cells assessed as reduction in cell viability after 72 hrs by MTT assay; details: MCF7, 72 h
[2] = test system: WiDr; experiment: Induction of mitochondrial morphological changes in human WiDr cells assessed as fragmentation of mitochondrial networks at 100 uM after 24 hrs by mitotracker Red-CMXROS dye based epifluorescent microscopic analysis
[3] = test system: MIA PaCa-2; experiment: Antiproliferative activity against human MIAPaCa2 cells assessed as reduction in cell viability after 72 hrs by MTT assay; details: MIA PaCa-2, 72 h
[4] = test system: WiDr; experiment: Antiproliferative activity against human WiDr cells assessed as reduction in cell viability after 72 hrs by MTT assay
[5] = test system: 4T1; experiment: Induction of mitochondrial morphological changes in mouse 4T1 cells assessed as fragmentation of mitochondrial networks at 100 uM after 24 hrs by mitotracker Red-CMXROS dye based epifluorescent microscopic analysis
[6] = test system: 4T1; experiment: Antiproliferative activity against mouse 4T1 cells assessed as reduction in cell viability after 72 hrs by MTT assay; details: 4T1, 72 h
[7] = test system: WiDr; experiment: Induction of mitochondrial stress in human WiDr cells assessed as effect on spare respiratory capacity at 50 to 100 uM in presence of oligomycin/FCCP/antimycin/rotenone by seahorse XFe96 analyser based assay
[8] = test system: WiDr; experiment: Induction of glycolytic stress in human WiDr cells assessed as reduction in glycolytic reverse at 50 to 100 uM in presence of glucose/oligomycin and 2-deoxyglucose by seahorse XFe96 analyser based assay
[9] = test system: 4T1; experiment: Induction of mitochondrial stress in mouse 4T1 cells assessed as acute change in oxygen consumption rate by measuring reduction in ATP production at 100 uM in presence of oligomycin/FCCP/antimycin/rotenone by seahorse XFe96 analyser based assay
[10] = test system: WiDr; experiment: Induction of mitochondrial membrane damage in human WiDr cells assessed as increase in proton leak at 50 to 100 uM in presence of oligomycin/FCCP/antimycin/rotenone by seahorse XFe96 analyser based assay
[11] = test system: WiDr; experiment: Induction of glycolytic stress in human WiDr cells assessed as increase in glycolysis at 50 to 100 uM in presence of glucose/oligomycin and 2-deoxyglucose by seahorse XFe96 analyser based assay
[12] = test system: WiDr; experiment: Induction of glycolytic stress in human WiDr cells assessed as reduction in glycolytic capacity at 100 uM in presence of glucose/oligomycin and 2-deoxyglucose by seahorse XFe96 analyser based assay
[13] = test system: 4T1; experiment: Induction of glycolytic stress in mouse 4T1 cells assessed as increase in glycolysis at 50 to 100 uM in presence of glucose/oligomycin and 2-deoxyglucose by seahorse XFe96 analyser based assay
[14] = test system: 4T1; experiment: Induction of mitochondrial stress in mouse 4T1 cells assessed as reduction in maximal respiration at 100 uM in presence of oligomycin/FCCP/antimycin/rotenone by seahorse XFe96 analyser based assay
[15] = test system: 4T1; experiment: Induction of glycolytic stress in mouse 4T1 cells assessed as reduction in glycolytic reverse at 50 to 100 uM in presence of glucose/oligomycin and 2-deoxyglucose by seahorse XFe96 analyser based assay
[16] = test system: 4T1; experiment: Induction of mitochondrial membrane damage in mouse 4T1 cells assessed as increase in proton leak at 50 to 100 uM in presence of oligomycin/FCCP/antimycin/rotenone by seahorse XFe96 analyser based assay
[17] = test system: WiDr; experiment: Induction of mitochondrial stress in human WiDr cells assessed as reduction in maximal respiration at 50 to 100 uM in presence of oligomycin/FCCP/antimycin/rotenone by seahorse XFe96 analyser based assay
[18] = test system: 4T1; experiment: Induction of glycolytic stress in mouse 4T1 cells assessed as reduction in glycolytic capacity at 50 to 100 uM in presence of glucose/oligomycin and 2-deoxyglucose by seahorse XFe96 analyser based assay
[19] = test system: 4T1; experiment: Induction of mitochondrial stress in mouse 4T1 cells assessed as effect on spare respiratory capacity at 50 to 100 uM in presence of oligomycin/FCCP/antimycin/rotenone by seahorse XFe96 analyser based assay
[20] = test system: WiDr; experiment: Induction of mitochondrial stress in human WiDr cells assessed as acute change in oxygen consumption rate by measuring reduction in ATP production at 50 to 100 uM in presence of oligomycin/FCCP/antimycin/rotenone by seahorse XFe96 analyser based assay

Row | SMILES | pIC50 [1] | pIC50 [3] | pIC50 [6] | Activity [2] | pIC50 [4] | Activity [5] | Activity [7] | Activity [8] | Activity [9] | Activity [10] | Activity [11] | Activity [12] | Activity [13] | Activity [14] | Activity [15] | Activity [16] | Activity [17] | Activity [18] | Activity [19] | Activity [20]
1 | O=C(CC[P+](c1ccc(F)cc1)(c1ccc(F)cc1)c1ccc(F)cc1)Nc1ccc2c(c1)B(O)OC2 | < 4.00 | < 4.00 | < 4.00 | inactive | < 4.00 | inactive | – | – | – | – | – | – | – | – | – | – | – | – | – | –
2 | O=C(CC[P+](c1ccccc1)(c1ccccc1)C1CCCCC1)Nc1ccc2c(c1)B(O)OC2 | < 4.00 | < 4.00 | < 4.00 | – | < 4.00 | – | – | – | – | – | – | – | – | – | – | – | – | – | – | –
3 | COc1ccc([P+](CCC(=O)Nc2ccc3c(c2)B(O)OC3)(c2ccc(OC)cc2)c2ccc(OC)cc2)cc1 | < 4.00 | < 4.00 | < 4.00 | – | < 4.00 | – | – | – | – | – | – | – | – | – | – | – | – | – | – | –

Now from value to molecule, other results behind:

Row | pIC50 [1] | pIC50 [3] | pIC50 [6] | SMILES | Activity [2] | pIC50 [4] | Activity [5] | Activity [7] | Activity [8] | Activity [9] | Activity [10] | Activity [11] | Activity [12] | Activity [13] | Activity [14] | Activity [15] | Activity [16] | Activity [17] | Activity [18] | Activity [19] | Activity [20]
4 | < 4.00 | < 4.00 | < 4.00 | O=C(CC[P+](c1ccccc1)(c1ccccc1)c1ccccc1)Nc1ccc2c(c1)B(O)OC2 | inactive | < 4.00 | inactive | – | – | – | – | – | – | – | – | – | – | – | – | – | –
5 | < 4.00 | < 4.00 | < 4.00 | O=C(CCBr)Nc1ccc2c(c1)B(O)OC2 | – | < 4.00 | – | – | – | – | – | – | – | – | – | – | – | – | – | – | –
6 | 4.34 | 4.36 | 4.30 | Cc1ccc([P+](CCC(=O)Nc2ccc3c(c2)B(O)OC3)(c2ccc(C)cc2)c2ccc(C)cc2)cc1 | Active | 4.62 | Active | inactive | Active | Active | Active | Active | Active | Active | inactive | Active | Active | Active | inactive | inactive | Active
